Results reported in ChEMBL document CHEMBL1201862, “PubChem BioAssay data set” (2004).
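Cells were grown in 96-well plates and exposed to each compound for 48 hours at five concentrations; endpoints were interpolated linearly between bracketing concentrations, or set to the highest concentration if not reached. At the GI50, growth is halved.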 Calls of active or inactive are those of the source. Cut-off read from the data, not from the text of the source: active = GI50 up to about 1.1 µM and inactive = higher.

How the values were obtained:
Assay in all cases: NCI anticancer screen, dose series, 48 h
NCI-H23 = tested on: NCI-H23
T47D = tested on: T47D
HOP-62 = tested on: HOP-62
HT-29 = tested on: HT-29
A498 = tested on: A498
MDA-MB-435 = tested on: MDA-MB-435
ACHN = tested on: ACHN
UACC-257 = tested on: UACC-257
Malme-3M = tested on: Malme-3M
NCI-H522 = tested on: NCI-H522
NCI-H460 = tested on: NCI-H460
U-251 = tested on: U-251
MDA-MB-231 = tested on: MDA-MB-231
CCRF-CEM = tested on: CCRF-CEM
OVCAR-5 = tested on: OVCAR-5
SW-620 = tested on: SW-620
K562 = tested on: K562
MDA-N = tested on: MDA-N
786-0 = tested on: 786-0
SF-539 = tested on: SF-539

Measured: GI50

COc1ccc(Cc2nc3cc(C(F)(F)F)ccc3n2CCCN(C)C)cc1
inactive: NCI-H23 15.7 µM | T47D 15.7 µM | HOP-62 26 µM | HT-29 18.5 µM | A498 17.3 µM | MDA-MB-435 16.1 µM | ACHN 27.2 µM | UACC-257 17.1 µM | Malme-3M 13.7 µM | NCI-H522 14.8 µM | NCI-H460 20.3 µM | U-251 17.1 µM | MDA-MB-231 24 µM | CCRF-CEM 22 µM | OVCAR-5 22.9 µM | SW-620 20.2 µM | K562 14.4 µM

c1ccc(C(=NCCC2CNc3ccccc32)c2ccccc2)cc1 (stereo not drawn)
inactive: NCI-H23 > 100 µM | HOP-62 > 100 µM | HT-29 > 100 µM | A498 > 100 µM | MDA-MB-435 > 100 µM | ACHN > 100 µM | UACC-257 > 100 µM | MDA-N > 100 µM | Malme-3M > 100 µM | NCI-H522 > 100 µM | 786-0 > 100 µM | NCI-H460 > 100 µM | U-251 > 100 µM | MDA-MB-231 > 100 µM | CCRF-CEM > 100 µM | OVCAR-5 > 100 µM | SW-620 > 100 µM | K562 > 100 µM

NNc1[nH]c(=S)[nH]c1C(N)=O
inactive: NCI-H23 > 10 µM | T47D > 100 µM | HOP-62 > 100 µM | HT-29 > 100 µM | A498 > 100 µM | MDA-MB-435 > 100 µM | UACC-257 > 100 µM | Malme-3M > 100 µM | NCI-H522 > 100 µM | 786-0 > 100 µM | NCI-H460 > 100 µM | U-251 > 100 µM | MDA-MB-231 > 100 µM | CCRF-CEM > 100 µM | OVCAR-5 > 100 µM | SW-620 > 100 µM | SF-539 > 100 µM

O=C1Nc2ccccc2/C1=N/Nc1nc(-c2ccccc2)cs1
inactive: NCI-H23 47.6 µM | T47D 26.9 µM | HOP-62 18.2 µM | HT-29 27.7 µM | MDA-MB-435 > 100 µM | ACHN 24.5 µM | UACC-257 56.2 µM | MDA-N 62.4 µM | 786-0 26.4 µM | NCI-H460 14.7 µM | U-251 24.2 µM | MDA-MB-231 28.3 µM | OVCAR-5 58.3 µM | SW-620 > 100 µM | SF-539 10.1 µM

COc1ccc(-c2cc(O)c3cccnc3n2)cc1
inactive: NCI-H23 34.7 µM | T47D 51.1 µM | HOP-62 44.3 µM | HT-29 15.7 µM | A498 63.5 µM | ACHN 53.7 µM | UACC-257 26.2 µM | Malme-3M 31.9 µM | NCI-H522 41.1 µM | MDA-MB-231 > 100 µM | CCRF-CEM 28.1 µM | OVCAR-5 > 100 µM | SW-620 32.2 µM | K562 25.8 µM | SF-539 42.4 µM

Cn1c(=O)oc2cc(C(=S)N3CCCCC3)ccc21
inactive: NCI-H23 > 100 µM | HOP-62 > 100 µM | HT-29 > 100 µM | A498 > 100 µM | MDA-MB-435 > 100 µM | ACHN > 100 µM | UACC-257 > 100 µM | MDA-N > 100 µM | Malme-3M > 100 µM | 786-0 > 100 µM | NCI-H460 > 100 µM | U-251 > 100 µM | MDA-MB-231 > 100 µM | CCRF-CEM 61.8 µM | OVCAR-5 > 100 µM | SW-620 > 100 µM | K562 > 100 µM | SF-539 > 100 µM

Cc1cn(C2CC(O)C(Cn3nncc3Cn3cnc4c(N)ncnc43)O2)c(=O)[nH]c1=O (stereo not drawn)
inactive: NCI-H23 > 100 µM | T47D > 100 µM | HOP-62 > 100 µM | A498 > 100 µM | MDA-MB-435 > 100 µM | ACHN > 100 µM | UACC-257 > 100 µM | MDA-N > 100 µM | Malme-3M > 100 µM | NCI-H522 > 100 µM | 786-0 > 100 µM | U-251 > 100 µM | CCRF-CEM > 100 µM | OVCAR-5 > 100 µM | SW-620 > 100 µM | SF-539 > 100 µM

CCOP(=O)(OCC)C(c1ccc(F)cc1)N(C(=O)NC(F)(F)F)c1ccc(F)cc1 (stereo not drawn)
inactive: NCI-H23 > 100 µM | HOP-62 > 100 µM | HT-29 > 100 µM | MDA-MB-435 > 100 µM | ACHN > 100 µM | UACC-257 > 100 µM | MDA-N > 100 µM | Malme-3M > 100 µM | NCI-H522 > 100 µM | 786-0 > 100 µM | NCI-H460 > 100 µM | U-251 > 100 µM | MDA-MB-231 > 100 µM | CCRF-CEM > 100 µM | OVCAR-5 > 100 µM | SW-620 > 100 µM | K562 > 100 µM | SF-539 > 100 µM

O=c1c2cn[nH]c2nc2scc(-c3ccc(Cl)cc3)n12
inactive: NCI-H23 > 100 µM | T47D > 100 µM | HOP-62 > 100 µM | HT-29 > 100 µM | MDA-MB-435 > 100 µM | ACHN > 100 µM | UACC-257 > 100 µM | MDA-N > 100 µM | Malme-3M > 100 µM | NCI-H522 > 100 µM | 786-0 > 100 µM | NCI-H460 > 100 µM | U-251 > 100 µM | MDA-MB-231 > 100 µM | CCRF-CEM > 100 µM | OVCAR-5 > 100 µM | SW-620 > 100 µM | K562 > 100 µM | SF-539 > 100 µM

N#Cc1sc2c(c1O)c(=O)n(-c1ccccc1)c(=S)n2-c1ccccc1
inactive: NCI-H23 > 100 µM | T47D > 100 µM | HT-29 > 100 µM | MDA-MB-435 > 100 µM | ACHN > 100 µM | UACC-257 > 100 µM | MDA-N > 100 µM | Malme-3M > 100 µM | NCI-H522 > 100 µM | 786-0 > 100 µM | NCI-H460 > 100 µM | U-251 > 100 µM | MDA-MB-231 > 100 µM | CCRF-CEM > 10 µM | OVCAR-5 > 100 µM | SW-620 > 100 µM | K562 89.1 µM

COC1OC(CO)C(O)C(OC(=O)c2cc(O)c(O)c(O)c2)C1OC(=O)c1cc(O)c(O)c(O)c1 (stereo not drawn)
inactive: NCI-H23 > 100 µM | HOP-62 91 µM | HT-29 65 µM | MDA-MB-435 33.4 µM | ACHN 58.2 µM | UACC-257 95.3 µM | MDA-N 25.1 µM | Malme-3M > 100 µM | NCI-H522 30.5 µM | 786-0 > 100 µM | NCI-H460 69.5 µM | U-251 > 100 µM | MDA-MB-231 > 100 µM | CCRF-CEM 42.7 µM | OVCAR-5 > 100 µM | SW-620 41.6 µM | K562 35.6 µM | SF-539 83.6 µM

O=C(N/N=C\c1ccc([N+](=O)[O-])cc1)Nc1ccccc1
inactive: NCI-H23 > 100 µM | T47D > 100 µM | HOP-62 > 100 µM | HT-29 > 100 µM | A498 > 100 µM | MDA-MB-435 > 100 µM | UACC-257 > 100 µM | MDA-N > 100 µM | Malme-3M > 100 µM | NCI-H460 > 100 µM | U-251 > 100 µM | CCRF-CEM > 100 µM | OVCAR-5 > 100 µM | SW-620 > 100 µM | K562 > 100 µM
